Measured values reported in ChEMBL document CHEMBL4304778 (Eur J Med Chem, 2019).

Legend:
[1] = target: Vascular endothelial growth factor receptor 1 (Homo sapiens, UniProt P17948); experiment: Inhibition of VEGFR1 (unknown origin)
HepG2 [2] = experiment: Antitumor activity against human HepG2 cells by MTT assay; type: functional, cell-based
PC-3 = experiment: Antitumor activity against human PC3 cells by MTT assay; type: functional, cell-based
MCF7 = experiment: Antitumor activity against human MCF7 cells by MTT assay; type: functional, cell-based
[3] = target: Signal transducer and activator of transcription 3 (Homo sapiens) (UniProt P40763); experiment: Activation of STAT3 phosphorylation at Y705 residue in human Huh7 cells relative to control; type: cell-based
Sequence of Signal transducer and activator of transcription 3 (Homo sapiens) (P40763 whole entry): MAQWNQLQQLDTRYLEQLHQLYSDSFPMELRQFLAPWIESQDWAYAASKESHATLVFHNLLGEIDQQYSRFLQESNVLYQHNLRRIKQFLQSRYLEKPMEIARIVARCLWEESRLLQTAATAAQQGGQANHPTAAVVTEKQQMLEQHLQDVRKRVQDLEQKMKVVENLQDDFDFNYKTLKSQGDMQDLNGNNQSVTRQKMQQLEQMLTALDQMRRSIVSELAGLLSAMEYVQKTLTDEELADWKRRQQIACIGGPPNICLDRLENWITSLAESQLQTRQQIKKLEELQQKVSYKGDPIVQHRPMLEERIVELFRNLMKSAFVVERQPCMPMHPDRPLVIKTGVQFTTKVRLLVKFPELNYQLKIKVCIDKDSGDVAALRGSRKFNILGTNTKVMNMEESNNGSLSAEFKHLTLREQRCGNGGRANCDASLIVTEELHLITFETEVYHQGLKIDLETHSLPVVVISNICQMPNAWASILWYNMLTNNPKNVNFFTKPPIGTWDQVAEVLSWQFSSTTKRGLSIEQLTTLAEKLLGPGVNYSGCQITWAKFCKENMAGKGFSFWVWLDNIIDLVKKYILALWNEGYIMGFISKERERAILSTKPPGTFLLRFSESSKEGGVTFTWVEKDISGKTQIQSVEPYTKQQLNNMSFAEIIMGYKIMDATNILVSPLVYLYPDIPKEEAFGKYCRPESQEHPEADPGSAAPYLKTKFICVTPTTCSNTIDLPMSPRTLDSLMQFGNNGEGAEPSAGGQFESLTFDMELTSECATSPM

HepG2 [4] = experiment: Induction of apoptosis in human HepG2 cells relative to control; type: functional
Hep 3B2 = experiment: Induction of apoptosis in human Hep3B cells relative to control; type: functional
[5] = Induction of apoptosis in human PLC5 cells relative to control; type: functional
SMMC-7721 = experiment: Cytotoxicity against human SMMC7721 cells after 24 hrs by MTT assay; type: functional, cell-based; conditions: SMMC-7721, 24 h
HepG2 [6] = experiment: Cytotoxicity against human HepG2 cells after 24 hrs by MTT assay; type: functional, cell-based; conditions: HepG2, 24 h
M21 = experiment: Antiproliferative activity against human M21 cells bt MTT assay; type: functional, cell-based
[7] = target: Vascular endothelial growth factor receptor 3 (Homo sapiens, UniProt P35916); experiment: Inhibition of VEGFR3 (unknown origin)
Sequence of Vascular endothelial growth factor receptor 3 (P35916 whole entry): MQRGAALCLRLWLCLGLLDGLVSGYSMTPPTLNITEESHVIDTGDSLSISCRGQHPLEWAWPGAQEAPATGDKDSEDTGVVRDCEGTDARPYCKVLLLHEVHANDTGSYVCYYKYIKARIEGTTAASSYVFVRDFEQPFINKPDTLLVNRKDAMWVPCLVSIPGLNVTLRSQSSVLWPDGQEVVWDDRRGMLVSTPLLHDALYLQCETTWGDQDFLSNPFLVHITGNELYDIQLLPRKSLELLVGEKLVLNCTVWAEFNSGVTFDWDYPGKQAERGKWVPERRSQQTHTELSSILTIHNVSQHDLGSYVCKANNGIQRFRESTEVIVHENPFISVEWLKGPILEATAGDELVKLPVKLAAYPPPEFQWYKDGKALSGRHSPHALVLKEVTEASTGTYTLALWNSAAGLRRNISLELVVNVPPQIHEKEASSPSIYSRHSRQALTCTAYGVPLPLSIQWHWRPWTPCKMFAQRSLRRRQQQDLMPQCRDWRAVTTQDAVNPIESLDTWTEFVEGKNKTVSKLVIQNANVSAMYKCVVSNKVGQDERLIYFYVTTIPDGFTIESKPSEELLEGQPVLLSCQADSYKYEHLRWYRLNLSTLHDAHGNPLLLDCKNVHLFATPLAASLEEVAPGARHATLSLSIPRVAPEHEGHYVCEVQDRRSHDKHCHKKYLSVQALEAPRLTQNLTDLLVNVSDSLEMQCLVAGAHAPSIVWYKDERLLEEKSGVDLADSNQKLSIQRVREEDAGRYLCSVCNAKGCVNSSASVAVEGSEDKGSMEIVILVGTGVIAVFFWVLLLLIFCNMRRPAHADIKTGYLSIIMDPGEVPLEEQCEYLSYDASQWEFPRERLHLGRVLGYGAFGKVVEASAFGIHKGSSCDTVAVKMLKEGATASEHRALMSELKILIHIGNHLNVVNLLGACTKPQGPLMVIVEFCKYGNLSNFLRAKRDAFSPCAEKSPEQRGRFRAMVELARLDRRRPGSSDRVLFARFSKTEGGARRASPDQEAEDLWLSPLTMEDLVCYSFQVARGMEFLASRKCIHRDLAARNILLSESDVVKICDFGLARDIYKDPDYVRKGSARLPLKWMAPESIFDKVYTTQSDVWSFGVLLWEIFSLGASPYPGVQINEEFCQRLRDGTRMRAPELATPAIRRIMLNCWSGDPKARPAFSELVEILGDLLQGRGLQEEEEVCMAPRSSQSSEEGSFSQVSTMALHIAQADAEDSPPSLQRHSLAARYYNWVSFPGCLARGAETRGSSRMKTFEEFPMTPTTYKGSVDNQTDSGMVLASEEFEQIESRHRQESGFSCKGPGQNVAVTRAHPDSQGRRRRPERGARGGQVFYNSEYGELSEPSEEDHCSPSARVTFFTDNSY

PLC = experiment: Cytotoxicity against human PLC cells; type: functional, cell-based

Sequence of Vascular endothelial growth factor receptor 1 (P17948 whole entry): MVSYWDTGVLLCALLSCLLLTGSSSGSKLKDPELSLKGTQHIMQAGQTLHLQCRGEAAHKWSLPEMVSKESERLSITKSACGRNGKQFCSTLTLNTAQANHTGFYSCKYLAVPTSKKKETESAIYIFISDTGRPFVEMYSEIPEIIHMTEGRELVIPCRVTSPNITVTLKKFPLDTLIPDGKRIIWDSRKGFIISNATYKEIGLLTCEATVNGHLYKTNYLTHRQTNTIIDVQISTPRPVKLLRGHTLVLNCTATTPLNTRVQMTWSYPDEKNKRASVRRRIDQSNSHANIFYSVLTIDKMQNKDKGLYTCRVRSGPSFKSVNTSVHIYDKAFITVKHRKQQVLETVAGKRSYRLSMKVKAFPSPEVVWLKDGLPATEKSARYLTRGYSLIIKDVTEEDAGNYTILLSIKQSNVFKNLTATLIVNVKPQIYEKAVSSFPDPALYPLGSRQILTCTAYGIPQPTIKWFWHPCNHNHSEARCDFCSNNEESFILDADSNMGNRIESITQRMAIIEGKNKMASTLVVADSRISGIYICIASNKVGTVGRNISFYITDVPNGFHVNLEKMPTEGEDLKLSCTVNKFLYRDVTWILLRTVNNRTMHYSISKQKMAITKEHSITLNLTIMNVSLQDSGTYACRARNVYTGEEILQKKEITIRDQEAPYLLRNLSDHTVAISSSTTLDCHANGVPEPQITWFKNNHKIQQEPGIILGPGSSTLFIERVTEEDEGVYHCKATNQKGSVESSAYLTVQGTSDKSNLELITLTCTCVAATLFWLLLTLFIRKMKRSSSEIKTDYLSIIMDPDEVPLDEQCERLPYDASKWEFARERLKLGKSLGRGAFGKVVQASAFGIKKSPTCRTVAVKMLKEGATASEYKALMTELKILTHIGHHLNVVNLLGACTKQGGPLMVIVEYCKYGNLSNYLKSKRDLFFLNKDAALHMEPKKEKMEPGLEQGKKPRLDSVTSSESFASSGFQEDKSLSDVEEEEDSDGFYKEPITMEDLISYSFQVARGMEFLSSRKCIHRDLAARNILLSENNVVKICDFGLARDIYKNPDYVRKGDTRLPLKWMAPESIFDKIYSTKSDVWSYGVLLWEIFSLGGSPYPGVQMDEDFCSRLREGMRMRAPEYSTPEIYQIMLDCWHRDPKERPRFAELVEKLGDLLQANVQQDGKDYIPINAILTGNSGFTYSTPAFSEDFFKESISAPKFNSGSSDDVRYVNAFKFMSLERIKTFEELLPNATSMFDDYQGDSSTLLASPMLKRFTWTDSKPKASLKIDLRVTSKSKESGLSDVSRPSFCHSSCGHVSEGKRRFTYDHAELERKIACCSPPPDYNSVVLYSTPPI

Structure (SMILES) | IC50 (HepG2 [2]) | IC50 (PC-3) | IC50 (MCF7) | other results
COc1cc2nccc(Oc3ccc(NC(=O)NC4CC4)c(Cl)c3)c2cc1C(N)=O [LENVATINIB] | – | – | – | IC50 [1]: 0.022 µM
CC(=O)/C=C/c1ccc(OC2CCCC2)cc1 | 27.3 µM | 21.8 µM | 40.9 µM | –
CN1CCC(=O)/C(=C/c2ccc(OC3CCCC3)cc2)C1 | 15.9 µM | 10.5 µM | 18.1 µM | –
CCN1CCC(=O)/C(=C/c2ccc(OC3CCCC3)cc2)C1 | 13 µM | 9.1 µM | 13.7 µM | –
Cc1ccc(NC(=O)C2(C(=O)Nc3ccc(C)c(Oc4ccc(C#N)cc4)c3)CC2)cc1Oc1ccc(C#N)cc1 | – | – | – | Activity [3]: 80%; Activity (HepG2 [4]): 2%; Activity (Hep 3B2): 2.5%; Activity [5]: 4.5%
Cc1ccc(C(=O)/C=C/c2ccc(OC3CCCC3)cc2)cc1 | 20 µM | 17.1 µM | 36.4 µM | –
Cc1ccc(NC(=O)Nc2ccc(C)c(Oc3ccc(C#N)cc3)c2)cc1Oc1ccc(C#N)cc1 | – | – | – | Activity [3]: 40%; Activity (HepG2 [4]): 22.5%; Activity (Hep 3B2): 17.5%; Activity [5]: 17.5%
O=C1CCC/C1=C\c1ccc(OC2CCCC2)cc1 | > 100 µM | 94.1 µM | > 100 µM | –
O=C(Nc1ccc(Cl)cc1)Nc1ccc(Oc2ncnc3cc(F)ccc23)cc1 | – | – | – | IC50 (SMMC-7721): 10.6 µM; IC50 (HepG2 [6]): 8.08 µM
O=C1CCCCC/C1=C\c1ccc(OC2CCCC2)cc1 | 71.3 µM | 26.9 µM | 64.7 µM | –
Cc1ccc(C2=NN(c3ccccc3)C(c3ccc(OC4CCCC4)cc3)C2)cc1 (stereo unspecified) | 7.2 µM | 7.8 µM | 5.6 µM | –
O=C(Nc1ccc(-n2ncc3c(Br)cccc32)cc1)Nc1ccc(Cl)c(C(F)(F)F)c1 | – | – | – | IC50 (M21): 3.43 µM
O=C1CCCC/C1=C\c1ccc(OC2CCCC2)cc1 | 55.4 µM | 71.1 µM | 49.4 µM | –
COc1cc2nccc(Oc3ccc(NC(=O)C4(C(=O)Nc5ccc(F)cc5)CC4)cc3)c2cc1OC [CABOZANTINIB] | – | – | – | IC50 [7]: 0.006 µM
CCOC(=O)C1=C(C)OC(N)=C(C#N)C1c1ccc(OC2CCCC2)cc1 (stereo unspecified) | 8 µM | 13.3 µM | 7.5 µM | –
O=C(Nc1ccc(-n2ncc3cc(C(F)(F)F)ccc32)cc1)Nc1ccc(C(F)(F)F)cc1 | – | – | – | IC50 (PLC): 4.34 µM
